Laboratory results reported in ChEMBL document CHEMBL3045802, “Synthesis and in vitro antitumor activity of new quinoline, pyrimido[4,5-b]quinoline, [1,2,3]triazino[4,5-b]quinoline, and [1,2,4]triazolo[2,3:3,4]pyrimido[6,5-b]quinoline analogs” (2013).

How the values were obtained:
Format in all cases: functional
MOLT-4 = test: Cytotoxicity against Homo sapiens (human) MOLT4 cells assessed as growth inhibition at 10 uM after 48 hr by coulter counter analysis; details: MOLT-4, 48 h, read-out: GI
786-0 = test: Cytotoxicity against Homo sapiens (human) 786-0 cells assessed as growth inhibition at 10 uM after 48 hr by coulter counter analysis; details: 786-0, 48 h, read-out: GI
DU-145 = test: Cytotoxicity against Homo sapiens (human) DU145 cells assessed as growth inhibition at 10 uM after 48 hr by coulter counter analysis; details: DU-145, 48 h, read-out: GI
SNB-19 = test: Cytotoxicity against Homo sapiens (human) SNB19 cells assessed as growth inhibition at 10 uM after 48 hr by coulter counter analysis; details: SNB-19, 48 h, read-out: GI
OVCAR-8 = test: Cytotoxicity against Homo sapiens (human) OVCAR8 cells assessed as growth inhibition at 10 uM after 48 hr by coulter counter analysis; details: OVCAR-8, 48 h, read-out: GI
COLO 205 = test: Cytotoxicity against Homo sapiens (human) COLO205 cells assessed as growth inhibition at 10 uM after 48 hr by coulter counter analysis; details: COLO 205, 48 h, read-out: GI
SR = test: Cytotoxicity against Homo sapiens (human) SR cells assessed as growth inhibition at 10 uM after 48 hr by coulter counter analysis; details: read-out: GI
HCT-116 = test: Cytotoxicity against Homo sapiens (human) HCT116 cells assessed as growth inhibition at 10 uM after 48 hr by coulter counter analysis; details: HCT-116, 48 h, read-out: GI
RPMI-8226 = test: Cytotoxicity against Homo sapiens (human) RPMI8226 cells assessed as growth inhibition at 10 uM after 48 hr by coulter counter analysis; details: RPMI-8226, 48 h, read-out: GI
PC-3 = test: Cytotoxicity against Homo sapiens (human) PC3 cells assessed as growth inhibition at 10 uM after 48 hr by coulter counter analysis; details: PC-3, 48 h, read-out: GI
LOX IMVI = test: Cytotoxicity against Homo sapiens (human) LOXIMVI cells assessed as growth inhibition at 10 uM after 48 hr by coulter counter analysis; details: read-out: GI
OVCAR-5 = test: Cytotoxicity against Homo sapiens (human) OVCAR5 cells assessed as growth inhibition at 10 uM after 48 hr by coulter counter analysis; details: OVCAR-5, 48 h, read-out: GI
UO-31 = test: Cytotoxicity against Homo sapiens (human) UO31 cells assessed as growth inhibition at 10 uM after 48 hr by coulter counter analysis; details: UO-31, 48 h, read-out: GI
NCI-H460 = test: Cytotoxicity against Homo sapiens (human) NCI-H460 cells assessed as growth inhibition at 10 uM after 48 hr by coulter counter analysis; details: NCI-H460, 48 h, read-out: GI
ACHN = test: Cytotoxicity against Homo sapiens (human) ACHN cells assessed as growth inhibition at 10 uM after 48 hr by coulter counter analysis; details: read-out: GI
NCI-H522 = test: Cytotoxicity against Homo sapiens (human) NCI-H522 cells assessed as growth inhibition at 10 uM after 48 hr by coulter counter analysis; details: NCI-H522, 48 h, read-out: GI
MDA-MB-468 = test: Cytotoxicity against Homo sapiens (human) MDA-MB-468 cells assessed as growth inhibition at 10 uM after 48 hr by coulter counter analysis; details: MDA-MB-468, 48 h, read-out: GI
K562 = test: Cytotoxicity against Homo sapiens (human) K562 cells assessed as growth inhibition at 10 uM after 48 hr by coulter counter analysis; details: K562, 48 h, read-out: GI
HOP-62 = test: Cytotoxicity against Homo sapiens (human) HOP62 cells assessed as growth inhibition at 10 uM after 48 hr by coulter counter analysis; details: HOP-62, 48 h, read-out: GI
SN12C = test: Cytotoxicity against Homo sapiens (human) SN12C cells assessed as growth inhibition at 10 uM after 48 hr by coulter counter analysis; details: read-out: GI
HT-29 = test: Cytotoxicity against Homo sapiens (human) HT-29 cells assessed as growth inhibition at 10 uM after 48 hr by coulter counter analysis; details: HT-29, 48 h, read-out: GI
BT-549 = test: Cytotoxicity against Homo sapiens (human) BT549 cells assessed as growth inhibition at 10 uM after 48 hr by coulter counter analysis; details: BT-549, 48 h, read-out: GI
HCT-15 = test: Cytotoxicity against Homo sapiens (human) HCT15 cells assessed as growth inhibition at 10 uM after 48 hr by coulter counter analysis; details: HCT-15, 48 h, read-out: GI
SK-MEL-2 = test: Cytotoxicity against Homo sapiens (human) SK-MEL-2 cells assessed as growth inhibition at 10 uM after 48 hr by coulter counter analysis; details: SK-MEL-2, 48 h, read-out: GI
MCF7 = test: Cytotoxicity against Homo sapiens (human) MCF7 cells assessed as growth inhibition at 10 uM after 48 hr by coulter counter analysis; details: MCF7, 48 h, read-out: GI
TK-10 = test: Cytotoxicity against Homo sapiens (human) TK10 cells assessed as growth inhibition at 10 uM after 48 hr by coulter counter analysis; details: TK-10, 48 h, read-out: GI
A549 = test: Cytotoxicity against Homo sapiens (human) A549 cells assessed as growth inhibition at 10 uM after 48 hr by coulter counter analysis; details: A549, 48 h, read-out: GI
SK-MEL-28 = test: Cytotoxicity against Homo sapiens (human) SK-MEL-28 cells assessed as growth inhibition at 10 uM after 48 hr by coulter counter analysis; details: SK-MEL-28, 48 h, read-out: GI
Malme-3M = test: Cytotoxicity against Homo sapiens (human) MALME-3M cells assessed as growth inhibition at 10 uM after 48 hr by coulter counter analysis; details: read-out: GI
SF-268 = test: Cytotoxicity against Homo sapiens (human) SF268 cells assessed as growth inhibition at 10 uM after 48 hr by coulter counter analysis; details: SF-268, 48 h, read-out: GI
HOP-92 = test: Cytotoxicity against Homo sapiens (human) HOP92 cells assessed as growth inhibition at 10 uM after 48 hr by coulter counter analysis; details: HOP-92, 48 h, read-out: GI
IGROV-1 = test: Cytotoxicity against Homo sapiens (human) IGROV1 cells assessed as growth inhibition at 10 uM after 48 hr by coulter counter analysis; details: IGROV-1, 48 h, read-out: GI
NCI-H23 = test: Cytotoxicity against Homo sapiens (human) NCI-H23 cells assessed as growth inhibition at 10 uM after 48 hr by coulter counter analysis; details: NCI-H23, 48 h, read-out: GI
M14 = test: Cytotoxicity against Homo sapiens (human) M14 cells assessed as growth inhibition at 10 uM after 48 hr by coulter counter analysis; details: M14, 48 h, read-out: GI

Measured: inhibition of growth at 10 µM

N#CCc1nc2c(c(=O)[nH]1)C(c1ccc(Cl)cc1)C1=C(CCCC1)N2 (stereo unspecified)
10%: SK-MEL-2
15.5%: SN12C
12.5%: HOP-62
37.7%: UO-31
12.1%: NCI-H23
13.8%: ACHN
< 10%: MOLT-4 | 786-0 | DU-145 | SNB-19 | OVCAR-8 | SR | HCT-116 | RPMI-8226 | PC-3 | LOX IMVI | OVCAR-5 | NCI-H460 | MDA-MB-468 | K562 | HT-29 | BT-549 | HCT-15 | MCF7 | TK-10 | A549 | SK-MEL-28 | Malme-3M | SF-268 | IGROV-1 | M14
11.2%: HOP-92
10.4%: COLO 205
11.4%: NCI-H522

COc1ccc(C2C3=C(CCCC3)Nc3nc(CC#N)[nH]c(=O)c32)cc1OC (stereo unspecified)
< 10%: MOLT-4 | 786-0 | DU-145 | SNB-19 | OVCAR-8 | COLO 205 | SR | HCT-116 | RPMI-8226 | PC-3 | LOX IMVI | OVCAR-5 | NCI-H460 | ACHN | NCI-H522 | MDA-MB-468 | K562 | HOP-62 | SN12C | HT-29 | BT-549 | HCT-15 | SK-MEL-2 | MCF7 | TK-10 | A549 | SK-MEL-28 | Malme-3M | SF-268 | HOP-92 | IGROV-1 | NCI-H23 | M14
26.9%: UO-31

O=c1[nH]c(-c2ccccc2)nc2c1C(c1ccc(Cl)cc1)C1=C(CCCC1)N2 (stereo unspecified)
< 10%: 786-0 | DU-145 | SNB-19 | OVCAR-8 | COLO 205 | SR | HCT-116 | RPMI-8226 | PC-3 | OVCAR-5 | NCI-H460 | ACHN | MDA-MB-468 | HOP-62 | SN12C | HT-29 | BT-549 | HCT-15 | SK-MEL-2 | MCF7 | TK-10 | A549 | SK-MEL-28 | Malme-3M | SF-268 | IGROV-1 | NCI-H23 | M14
12%: HOP-92
43.3%: UO-31
20.2%: NCI-H522
11.2%: LOX IMVI | K562
13.6%: MOLT-4

CN(C)c1ccc(-c2nc3c(c(=O)[nH]2)C(c2ccc(Cl)cc2)C2=C(CCCC2)N3)cc1 (stereo unspecified)
12.8%: HOP-62
35.9%: HOP-92
12.4%: NCI-H23
14.6%: SN12C
13.1%: ACHN
15.8%: NCI-H522
10%: SK-MEL-2
47.4%: UO-31
10.2%: COLO 205
< 10%: MOLT-4 | 786-0 | DU-145 | SNB-19 | OVCAR-8 | SR | HCT-116 | RPMI-8226 | PC-3 | LOX IMVI | OVCAR-5 | NCI-H460 | MDA-MB-468 | K562 | HT-29 | BT-549 | HCT-15 | MCF7 | TK-10 | A549 | SK-MEL-28 | Malme-3M | SF-268 | IGROV-1 | M14
